Results taken from the NIST ThermoML archive (doi:10.1016/j.fluid.2016.08.035).
Numbers after ± are expanded uncertainties.

What was measured:
[1] = molar heat capacity at constant pressure; xn = mol fraction of the nth substance listed; details: 101 kPa, Liquid, DSC
[2] = xn = mol fraction of the nth substance listed; details: 101 kPa, Liquid; for viscosity: Falling or rolling sphere viscometry; for speed of sound: Sing-around technique in a fixed-path interferometer; for mass density: Vibrating tube method

CC12CCC(CC1)C(C)(C)O2 [1,3,3-trimethyl-2-oxabicyclo[2.2.2]octane] + CCCCCCCCCC
Details	mass density, 278.15 K [kg/m3]	molar heat capacity at constant pressure, 278.15 K [J/K/mol]	molar heat capacity at constant pressure, 298.15 K [J/K/mol]	molar heat capacity at constant pressure, 318.15 K [J/K/mol]	molar heat capacity at constant pressure, 338.15 K [J/K/mol]	speed of sound, 278.15 K [m/s]	viscosity, 278.15 K [mPa·s]	viscosity, 298.15 K [mPa·s]
[1], x1 = 0.1066	–	299.16 ± 12	308.32 ± 12	318.26 ± 12	328.92 ± 13	–	–	–
[1], x1 = 0.2007	–	293.5 ± 11	303.12 ± 12	313.35 ± 12	324.19 ± 13	–	–	–
[1], x1 = 0.2965	–	287.99 ± 11	298.17 ± 12	308.63 ± 12	319.65 ± 12	–	–	–
[1], x1 = 0.4063	–	282.04 ± 11	292.62 ± 11	303.32 ± 12	314.6 ± 12	–	–	–
[1], x1 = 0.5005	–	277.25 ± 11	288.12 ± 11	298.96 ± 12	310.38 ± 12	–	–	–
[1], x1 = 0.5959	–	272.59 ± 11	283.78 ± 11	294.7 ± 11	306.21 ± 12	–	–	–
[1], x1 = 0.7007	–	267.96 ± 10	279.2 ± 11	290.19 ± 11	301.78 ± 12	–	–	–
[1], x1 = 0.7989	–	263.81 ± 10	275.24 ± 11	286.17 ± 11	297.82 ± 12	–	–	–
[1], x1 = 0.8956	–	259.87 ± 10	271.44 ± 11	282.47 ± 11	294.23 ± 11	–	–	–
[1], x1 = 1	–	256.14 ± 9.9	267.69 ± 10	278.65 ± 11	290.33 ± 11	–	–	–
[2], x1 = 0.1066	758.86 ± 0.24	–	–	–	–	1315.5 ± 1.5	1.29 ± 0.04	0.93 ± 0.04
[2], x1 = 0.2007	775.04 ± 0.24	–	–	–	–	1316.6 ± 1.5	1.39 ± 0.04	1 ± 0.04
[2], x1 = 0.2965	792.05 ± 0.24	–	–	–	–	1318.2 ± 1.5	1.5 ± 0.04	1.07 ± 0.04
[2], x1 = 0.4063	812.26 ± 0.24	–	–	–	–	1321.2 ± 1.5	1.66 ± 0.04	1.16 ± 0.04
[2], x1 = 0.5005	830.26 ± 0.24	–	–	–	–	1324.7 ± 1.5	1.82 ± 0.04	1.26 ± 0.04
[2], x1 = 0.5959	849.15 ± 0.24	–	–	–	–	1329 ± 1.5	2.05 ± 0.04	1.41 ± 0.04
[2], x1 = 0.7007	870.67 ± 0.24	–	–	–	–	1335 ± 1.5	2.39 ± 0.05	1.61 ± 0.04
[2], x1 = 0.7989	891.66 ± 0.23	–	–	–	–	1341.8 ± 1.5	2.86 ± 0.05	1.86 ± 0.04
[2], x1 = 0.8956	913.12 ± 0.23	–	–	–	–	1349.5 ± 1.6	3.41 ± 0.05	2.16 ± 0.04
[2], x1 = 1	937.25 ± 0.23	–	–	–	–	1359.6 ± 1.6	4.21 ± 0.05	2.6 ± 0.05
